# Counter-ions that a name gives are not always drawn. The source made the active and inactive calls. No cut-off for these calls is given here.
# Assays:
# [1] = test system: Influenza A virus; conditions: mdck
# [2] = test system: Matrix protein 2 (Influenza A virus (A/Udorn/307/1972(H3N2))), P0DOF8 [V27A]; conditions: Influenza A virus (A/udorn/1972(H3N2))
# [3] = test system: Influenza A virus; conditions: mdck; remark: listed apart in the source
# [4] = test system: MDCK; format: functional, cell-based; conditions: Influenza A virus (A/Hong Kong/7/1987(H3N2)), 0.5 to 2 uM
# [5] = test system: MDCK; assay: Antiviral activity against Influenza A virus (A/HK/7/87(H3N2)) harboring wild type M2 channel infected in MDCK cells assessed as reduction in plaque number at 0.5 uM after 72 hrs by crystal violet staining; format: functional, cell-based; conditions: Influenza A virus (A/Hong Kong/7/1987(H3N2))
# [6] = test system: MDCK; assay: Antiviral activity against Influenza A virus (A/HK/7/87(H3N2)) harboring wild type M2 channel infected in MDCK cells assessed as reduction in plaque size at 0.5 uM after 72 hrs by crystal violet staining; format: functional, cell-based; conditions: Influenza A virus (A/Hong Kong/7/1987(H3N2))
SMILES,EC50 [1] [µM],inhibition [2],EC50 [3] [µM],inhibition [4],Activity [5],Activity [6]
C1CC(N2CC3C4CCC(C5CC45)C3C2)CCN1 (stereo unspecified),> 100,inactive,> 100,–,–,–
CC12CC34CNCC35CC1(C)C(C)(C5)C2(C)C4 (stereo unspecified),1.8,–,3,Active,–,–
C1CC2C3CNCC3C1C1CC21 (stereo unspecified),> 100,–,> 100,–,–,–
N=C(N)N1CC2C3C=CC(C4CC34)C2C1 (stereo unspecified),> 100,–,> 100,–,–,–
N=C(N)N1CC2C3CCC(C4CC34)C2C1 (stereo unspecified),> 100,–,> 100,–,–,–
CC12CC34CN(C(=N)N)CC35CC1(C)C(C)(C5)C2(C)C4 (stereo unspecified),> 100,–,> 100,–,–,–
N=C(N)N1CC2C3C=CC(C4C=CC43)C2C1 (stereo unspecified),> 100,–,> 100,Active,–,–
C1=CC2C1C1C=CC2C2CNCC12 (stereo unspecified),1.3,–,< 0.8,Active,–,–
CC(N)C12CC3CC(CC(C3)C1)C2 (stereo unspecified) [RIMANTADINE HYDROCHLORIDE],7.6,–,5.1,–,–,–
N=C(N)N1CC2C3CCC(C4CCC43)C2C1 (stereo unspecified),> 100,–,> 100,–,Active,Active
C1=CC2C3CNCC3C1C1CC21 (stereo unspecified),> 100,–,> 100,–,–,–
NC12CC3CC(CC(C3)C1)C2 [AMANTADINE],30,–,–,–,–,–
C1=CC2C3CC3C1C1CN(C3CCNCC3)CC21 (stereo unspecified),≤ 0.8,inactive,< 0.8,–,–,–
C1CC2C1C1CCC2C2CNCC12 (stereo unspecified),> 100,–,> 100,–,Active,Active

# Reference: ChEMBL document CHEMBL3286248, “Easily accessible polycyclic amines that inhibit the wild-type and amantadine-resistant mutants of the M2 channel of influenza A virus” (J Med Chem, 2014)
